From US6294542A, “Pyrimidinone compounds, pharmaceutical compositions containing the compounds and the process for preparing the same” (Boryung Pharmaceutical Co. Ltd., priority 1998, dated 2001)

Legend:
[1] = Acute Toxicity Test (oral, mice); type: in vivo; details: for LD50: mouse, in vivo, po
Protocol: Respective 5 mice of ICR system, which was distributed from Korean Laboratory Animal Center, were bred in a polycarbonate breeding box at a breeding environment of 23±1° C. of temperature, 55±5% of humidity, 10-15 times/hr of evacuation, 12 hr cycle of fluorescent light luminance, and 150-300 Lux of illumination.
After observing the mice for one week of acclimation breeding period, only normal mice were selected for laboratory work. The mice were fed with sterilized feed for laboratory animals, which was made by Cheil Jedang Co.,Ltd, and supplied with purified water to drink.
During the acclimation period, mice, who were evaluated to be healthy, were weighed and divided into groups randomly. Individual identification of laboratory animals was performed by indumentum pigment display and tag display per breeding box.
Establishment of dose was carried out according to a result of preliminary test in such a manner that a maximum dose group for both male and female was set to 5000 mg/kg and azeotropy was set to 1.71. Medium-high, medium and medium-low dose groups were respectively set as follows and a control group was administrated with physiological saline for injection.
Before administration of testing substances, body weight of the laboratory animals was in the range of 24-28 g in case of male and in the range of 19-28 g in case of female, respectively. The laboratory animals were aged 6 weeks.
Preparation of the testing substances was dissolved in physiological saline before administration. Dose was calculated according to the body weight which was measured before administration and dispensed by oral administration to a mouse who was in abrosia for 18 hours before testing.
Observation of clinical symptom such as general change, toxic symptom and mortality was performed for all laboratory animals once an hour during 6 hours after administration on the very administration day, and once a day from the next day to 14th day of administration.
Administration group, who was administered with testing substances, and the control group were weighed on the administration day, first, third, seventh, tenth and fourteenth days from the administration at a predetermined time for all animals who were alive.
After finish of the test, all animals were slightly anesthetized with ether and bleeding-killed. Appearance and internal organs of the animals were examined with naked eye carefully. Animals, who died during the text, were examined in the same manner.

[2] = test system: Angiotensin II-induced pressor response; experiment: In vivo Angiotensin II antagonism in conscious normotensive rats; details: Rattus norvegicus, po; P.O.; conscious normotensive male SD rats; Angiotensin II 0.1 μg/kg; read-out: ID50 (dose of test compound necessary to produce 50% inhibition of Angiotensin II-induced pressor response)
Protocol: The antagonistic activity of the compound (I) against the angiotensin II, which is prepared by the process according to a preferred embodiment of the invention, was evaluated with relation to rats.
In vivo Angiotensin II antagonism in conscious normotensive rats.
Male SD rats (Charles River Japan, 9 weeks, 300-350 g) were anesthetized with pentobarbital at 50 mg/kg i.p. Both the left femoral artery and the right femoral vein were cannulated. A heparin-filled catheter (50U/ml) was tunneled subcutaneously (s.c.) to the dorsal side of the neck and exteriorized.
Rats were permitted to recover overnight from anesthesia and allowed free access to water, but food was withheld.
The next day, the femoral artery catheter was connected to a pressure transducer (COBE 041-500-508, USA) coupled to a polygraph (GRASS Model 7, USA) to monitor arterial blood pressure. After an appropriate equilibration period, Angiotensin II (0.1 μg/kg) was injected in the femoral vein three times during the control period.
Test compounds were then administered orally (p.o.) at a constant volume of 2 ml/kg.
Angiotensin II challenges were repeated at set times thereafter.
ID50 values, the dose of test compound necessary to produce 50% inhibition of Angiotensin II-induced pressor response, were calculated from peak inhibition percentage with several doses of test compound.

## CCCCc1nc(C)c(CC(=S)N(C)C)c(=O)n1Cc1ccc(-c2ccccc2-c2nnn[nH]2)cc1 [Compound 2, 2-n-butyl-5-dimethylaminothiocarbonylmethyl-6-methyl-3-[[2'-(1H-tetrazol-5-yl)biphenyl-4-yl]methyl]-pyrimidine-4(3H)-one]
[1]; female, 1000 mg/kg oral, day 0
  Mortality (death number/survival number): 0/5
[1]; female, 1000 mg/kg oral, day 1
  Mortality (death number/survival number): 0/5
[1]; female, 1000 mg/kg oral, day 2
  Mortality (death number/survival number): 0/5
[1]; female, 1000 mg/kg oral, day 3
  Mortality (death number/survival number): 0/5
[1]; female, 1000 mg/kg oral, day 7
  Mortality (death number/survival number): 0/5
[1]; female, 1000 mg/kg oral, day 14
  Mortality (death number/survival number): 0/5
[1]; female, 1710 mg/kg oral, day 0
  Mortality (death number/survival number): 0/5
[1]; female, 1710 mg/kg oral, day 1
  Mortality (death number/survival number): 0/5
[1]; female, 1710 mg/kg oral, day 2
  Mortality (death number/survival number): 0/5
[1]; female, 1710 mg/kg oral, day 3
  Mortality (death number/survival number): 0/5
[1]; female, 1710 mg/kg oral, day 7
  Mortality (death number/survival number): 0/5
[1]; female, 1710 mg/kg oral, day 14
  Mortality (death number/survival number): 0/5
[1]; female, 2924 mg/kg oral, day 0
  Mortality (death number/survival number): 0/5
[1]; female, 2924 mg/kg oral, day 1
  Mortality (death number/survival number): 0/5
[1]; female, 2924 mg/kg oral, day 2
  Mortality (death number/survival number): 0/5
[1]; female, 2924 mg/kg oral, day 3
  Mortality (death number/survival number): 0/5
[1]; female, 2924 mg/kg oral, day 7
  Mortality (death number/survival number): 0/5
[1]; female, 2924 mg/kg oral, day 14
  Mortality (death number/survival number): 0/5
[1]; female, 5000 mg/kg oral
  Final mortality (death number/total number): 0/5
[1]; female, 5000 mg/kg oral, day 0
  Mortality (death number/survival number): 0/5
[1]; female, 5000 mg/kg oral, day 1
  Mortality (death number/survival number): 0/5
[1]; female, 5000 mg/kg oral, day 2
  Mortality (death number/survival number): 0/5
[1]; female, 5000 mg/kg oral, day 3
  Mortality (death number/survival number): 0/5
[1]; female, 5000 mg/kg oral, day 7
  Mortality (death number/survival number): 0/5
[1]; female, 5000 mg/kg oral, day 14
  Mortality (death number/survival number): 0/5
[1]; male, 1000 mg/kg oral, day 0
  Mortality (death number/survival number): 0/5
[1]; male, 1000 mg/kg oral, day 1
  Mortality (death number/survival number): 0/5
[1]; male, 1000 mg/kg oral, day 2
  Mortality (death number/survival number): 0/5
[1]; male, 1000 mg/kg oral, day 3
  Mortality (death number/survival number): 0/5
[1]; male, 1000 mg/kg oral, day 7
  Mortality (death number/survival number): 0/5
[1]; male, 1000 mg/kg oral, day 14
  Mortality (death number/survival number): 0/5
[1]; male, 1710 mg/kg oral, day 0
  Mortality (death number/survival number): 0/5
[1]; male, 1710 mg/kg oral, day 1
  Mortality (death number/survival number): 0/5
[1]; male, 1710 mg/kg oral, day 2
  Mortality (death number/survival number): 0/5
[1]; male, 1710 mg/kg oral, day 3
  Mortality (death number/survival number): 0/5
[1]; male, 1710 mg/kg oral, day 7
  Mortality (death number/survival number): 0/5
[1]; male, 1710 mg/kg oral, day 14
  Mortality (death number/survival number): 0/5
[1]; male, 2924 mg/kg oral, day 0
  Mortality (death number/survival number): 0/5
[1]; male, 2924 mg/kg oral, day 1
  Mortality (death number/survival number): 0/5
[1]; male, 2924 mg/kg oral, day 2
  Mortality (death number/survival number): 0/5
[1]; male, 2924 mg/kg oral, day 3
  Mortality (death number/survival number): 0/5
[1]; male, 2924 mg/kg oral, day 7
  Mortality (death number/survival number): 0/5
[1]; male, 2924 mg/kg oral, day 14
  Mortality (death number/survival number): 0/5
[1]; male, 5000 mg/kg oral
  Final mortality (death number/total number): 0/5
[1]; male, 5000 mg/kg oral, day 0
  Mortality (death number/survival number): 0/5
[1]; male, 5000 mg/kg oral, day 1
  Mortality (death number/survival number): 0/5
[1]; male, 5000 mg/kg oral, day 2
  Mortality (death number/survival number): 0/5
[1]; male, 5000 mg/kg oral, day 3
  Mortality (death number/survival number): 0/5
[1]; male, 5000 mg/kg oral, day 7
  Mortality (death number/survival number): 0/5
[1]; male, 5000 mg/kg oral, day 14
  Mortality (death number/survival number): 0/5
[1]; female mice
  LD50: > 5000 mg/kg
[1]; male mice
  LD50: > 5000 mg/kg
[2]
  ED50: 1.1 mg/kg
